# Test results from US9353151B2, “HLA-binding peptide, and DNA fragment and recombinant vector coding for said HLA-binding peptide” (NEC Corporation, priority 2005, dated 2016).
# No end group written: not given here.
# Legend:
# [1] = system: HLA-A24 molecule (product of the HLA-A*2402 gene); test: Experiment of binding peptide to HLA-A24 molecule (C1R-A24 cells, flow cytometry); design: species or system human; details: for Binding Experiment Data: -log Kd value (Kd in molar concentration), C1R-A24 cells
# Experimental: The ability of a peptide to bind to an HLA-A24 molecule, which is a product of the HLA-A*2402 gene, was measured using C1R-A24 cells expressing the HLA-A24 molecule (cells prepared by Professor Masafumi Takiguchi, Kumamoto University being supplied with permission by Assistant Professor Masaki Yasukawa, Ehime University).
# C1R-A24 cells were first exposed to acidic conditions at a pH of 3.3 for 30 seconds, thus dissociating and removing a light chain β2m, which is associated with HLA class I molecules in common, and an endogenous peptide originally bound to the HLA-A*2402 molecule. After neutralization, purified β2m was added to C1R-A24 cells, the obtained product was added to serial dilutions of a peptide, and incubated on ice for 4 hours. Staining was carried out using fluorescently labeled monoclonal antibody 17A12, which recognizes association (MHC-pep) of the three members, that is, HLA-A*2402 molecule, the peptide, and β2m, which had reassociated during the incubation.
# Subsequently, the MHC-pep count per C1R-A24 cell (proportional to the strength of fluorescence of the above-mentioned fluorescent antibody) was quantitatively measured using an FACScan fluorescence-activated cell sorter (Becton Dickinson Biosciences). A binding dissociation constant Kd value between the HLA-A24 molecule and the peptide was calculated from the average strength of fluorescence per cell by a published method (Udaka et al., Immunogenetics, 51, 816-828, 2000).
# [2] = target: HLA-A2 molecule (product of the HLA-A*0201 gene) (Homo sapiens, UniProt P04439, D140Y/D185E/D98H/E176V/E277Q/G131W/G231S/I119V/I121R/I166T/I218V/L300P/L318F/N151K/N90K/P208A/P217A/Q86G/Q94H/R138H/R169H/T345S); test: Experiment of binding peptide to HLA-A2 molecule (JY cells, flow cytometry); details: -log Kd value (Kd in molar concentration)
# Experimental: JY cells were first exposed to acidic conditions at a pH of 3.8 for 30 seconds, thus dissociating and removing a light chain β2m and an endogenous peptide, which were noncovalently associated with the HLA-A*0201 molecule. After neutralization, a reassociation experiment was carried out.
# The above-mentioned JY cells and the purified β2m were added to stepped dilutions of peptide for which the binding ability would be measured, and incubation was carried out on ice for 4 hours. HLA-A*0201 molecules that had reassociated up to this point were stained using the associating type specific fluorescently-labeled monoclonal antibody BB7.2.
# Subsequently, the amount of fluorescence per cell was measured using a flow cytometer and a dissociation constant Kd value in molar concentration was calculated by a published method (Udaka et al., Immunogenetics, 51, 816-828, 2000).
Sequence,binding to a human HLA-A type molecule (in words) [1],Binding Experiment Data ([1]; 9 amino acid peptides),further results
FLKDHRISTF [compound 44],experimentally confirmed to bind,–,Binding Experiment Data ([1]; 10 amino acid peptides): 7.008
TLPPAWQPF [compound 23],–,–,Kd ([2]; 9 amino acid peptides): 4.37 µM
SSGCAFLSV [compound 21],–,–,Kd ([2]; 9 amino acid peptides): 5.07 µM
GAPTLPPAW [compound 6],experimentally confirmed to bind,6.1588,–
AFLSVKKQF [compound 2],experimentally confirmed to bind,7.7283,–
FLKDHRISTF [compound 61],–,–,Kd ([2]; 10 amino acid peptides): 2.95 µM
TLPPAWQPF [compound 1],experimentally confirmed to bind,8.2648,–
